Our source for the GI50 and TGI values is PubChem BioAssay (NCI).

Test systems include HCT-116 colon; K-562 leukemia; A498 renal; CCRF-CEM leukemia; OVCAR-8 ovarian; HCT-15 colon; T-47D breast; SK-MEL-2 melanoma; PC-3 prostate; A549 NSCLC.
Assay in all cases: growth of human tumour cells (NCI), 48 h

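Compound exposure: 48 hours, 5 concentrations, 96-well plates. The concentration for 50% growth inhibition is given as GI50. TGI marks complete inhibition of growth.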

On to `COc1ccc2c(CN3CCC(CO)CC3)cc3cc4c(cc3c2c1)OCO4`, for which the GI50 in the assay on HCT-116 colon was 0.069 µM; in the assay on K-562 leukemia, 0.15 µM; with A498 renal it was 0.211 µM; in the assay with OVCAR-8 ovarian it was 0.0844 µM; with HCT-15 colon it was 0.17 µM; with T-47D breast it was 0.418 µM. In addition, the GI50 in the assay with SK-MEL-2 melanoma is 0.193 µM; in the assay with PC-3 prostate, 0.236 µM. The TGI stood at 0.529 µM with HCT-116 colon; 3.07 µM with K-562 leukemia; 0.554 µM in the assay with A498 renal; 0.373 µM in the assay with CCRF-CEM leukemia; 2.19 µM with OVCAR-8 ovarian; 3.49 µM with HCT-15 colon. In addition, the TGI turned out to be 9.17 µM with T-47D breast, 0.636 µM in the assay with SK-MEL-2 melanoma and 1.02 µM in the assay with PC-3 prostate.

With `O=C(O)C(Cc1ccccc1-c1ccccc1)C(=O)O`, the TGI in the assay on HCT-116 colon, in the assay on A549 NSCLC, in the assay with K-562 leukemia, with A498 renal, in the assay with OVCAR-8 ovarian and with HCT-15 colon was above 100 µM in each case. For the same compound, the TGI in the assay on T-47D breast, with SK-MEL-2 melanoma and in the assay with PC-3 prostate was above 100 µM each time.

Turning to `CN(C)CCCNC(=O)c1cc(NC(=O)c2cc(NC(=O)CCCN3c4ccccc4C=Cc4ccccc43)cn2C)cn1C`, the GI50 was 3.35 µM in the assay with HCT-116 colon; 11.5 µM in the assay with A549 NSCLC; 2.12 µM in the assay with K-562 leukemia; 22.4 µM in the assay with A498 renal; 2.82 µM with CCRF-CEM leukemia; 17.3 µM in the assay on OVCAR-8 ovarian. In addition, the GI50 is 25.7 µM with HCT-15 colon, 17.1 µM in the assay with T-47D breast and 5.33 µM with PC-3 prostate. Moreover, the TGI in the assay with HCT-116 colon was above 100 µM; with A549 NSCLC it was 39.9 µM; with K-562 leukemia, 4.97 µM; in the assay with A498 renal, 53.3 µM; with CCRF-CEM leukemia it was 12.7 µM; with OVCAR-8 ovarian it was 72.2 µM. Further, the results for the TGI with HCT-15 colon, with T-47D breast and in the assay on PC-3 prostate were 82.7 µM, above 100 µM and above 100 µM, respectively.

For the compound `COc1cccc(-c2nc(-c3ccc(NS(=O)(=O)c4ccccc4)cc3)[nH]c2-c2ccnc(Br)c2)c1`, the GI50 was 2.09 µM with HCT-116 colon; 3.11 µM with A549 NSCLC; 2.6 µM in the assay with K-562 leukemia; 1.25 µM in the assay with A498 renal; 3.14 µM with CCRF-CEM leukemia; 3.33 µM in the assay with OVCAR-8 ovarian. For the same compound, the GI50 with T-47D breast was 2.74 µM; with SK-MEL-2 melanoma, 2.5 µM; in the assay with PC-3 prostate it was 2.39 µM. For the same compound, the TGI in the assay on HCT-116 colon was 5.46 µM; with A549 NSCLC, above 100 µM; in the assay with K-562 leukemia, above 100 µM; in the assay on A498 renal, 5.03 µM; in the assay with CCRF-CEM leukemia it was above 100 µM; with OVCAR-8 ovarian, above 100 µM. In addition, the TGI in the assay on T-47D breast is above 100 µM; with SK-MEL-2 melanoma, 6.62 µM; with PC-3 prostate, 16.9 µM.

As to `CS(=O)(=O)c1ccc(Oc2nccc(-c3c(-c4ccc(F)cc4)ncn3C3CCNCC3)n2)cc1`, the GI50 in the assay on HCT-116 colon was above 25 µM; with A549 NSCLC, above 25 µM; in the assay with K-562 leukemia, above 9.38 µM; in the assay on A498 renal, above 25 µM; in the assay with OVCAR-8 ovarian, above 25 µM; in the assay with HCT-15 colon, above 25 µM. For the same compound, the GI50 in the assay on T-47D breast, in the assay with SK-MEL-2 melanoma and with PC-3 prostate was above 25 µM in each case. The TGI in the assay with HCT-116 colon is above 25 µM; with A549 NSCLC it was above 25 µM; in the assay with K-562 leukemia, above 14.9 µM; with A498 renal it was above 25 µM; in the assay with OVCAR-8 ovarian it was above 25 µM; with HCT-15 colon, above 25 µM. The TGI in the assay with T-47D breast, in the assay on SK-MEL-2 melanoma and with PC-3 prostate was above 25 µM in each case.

`COc1cc(-c2cc(C(=O)Nc3nc4ccccc4s3)nc3cc(-c4ccccc4)nn23)cc(OC)c1OC`: the GI50 with HCT-116 colon is 4.51 µM; in the assay on K-562 leukemia, 25.4 µM; in the assay with A498 renal, 9.29 µM; in the assay with CCRF-CEM leukemia, 54.1 µM; in the assay with OVCAR-8 ovarian, 5.37 µM; in the assay with HCT-15 colon, above 100 µM. The GI50 was 21.4 µM in the assay with T-47D breast, 11.2 µM in the assay with SK-MEL-2 melanoma and above 100 µM with PC-3 prostate. Besides, the TGI in the assay on HCT-116 colon is above 100 µM; in the assay on K-562 leukemia it was above 100 µM; with A498 renal, 36.7 µM; in the assay on CCRF-CEM leukemia, above 100 µM; in the assay on OVCAR-8 ovarian it was above 100 µM; in the assay with HCT-15 colon, above 100 µM. Also, the TGI in the assay on T-47D breast was above 100 µM; in the assay with SK-MEL-2 melanoma it was 27.7 µM; in the assay on PC-3 prostate it was above 100 µM.

Take `CCOC(=O)c1sc2ncn(Cc3cccc(Cl)c3)c(=O)c2c1C`: the GI50 is 12.3 µM with HCT-116 colon; 16.4 µM in the assay on A549 NSCLC; 12.3 µM in the assay with K-562 leukemia; 15.9 µM in the assay with A498 renal; 15.1 µM in the assay on OVCAR-8 ovarian; 14.1 µM in the assay on HCT-15 colon. Also, the GI50 with T-47D breast was 15.6 µM; with SK-MEL-2 melanoma, 15.1 µM; in the assay with PC-3 prostate, 13.1 µM. Also, the TGI in the assay on HCT-116 colon amounted to 24.8 µM; with A549 NSCLC, 30 µM; in the assay on K-562 leukemia it was 24.8 µM; in the assay on A498 renal it was 30.7 µM; in the assay on OVCAR-8 ovarian, 28.4 µM; with HCT-15 colon, 27 µM. The values for the TGI with T-47D breast, in the assay with SK-MEL-2 melanoma and in the assay with PC-3 prostate were 29 µM, 29.1 µM and 25.8 µM, respectively.

For the compound `COc1ccc(-n2c(-c3ccc(NC(=O)CCCl)cc3)nnc2-c2cc(OC)c(OC)c(OC)c2)cc1`, the GI50 in the assay on HCT-116 colon was 2.81 µM; in the assay with A549 NSCLC, 3.89 µM; in the assay with A498 renal it was 3.82 µM; in the assay on CCRF-CEM leukemia, 4.53 µM; in the assay on OVCAR-8 ovarian, 7.87 µM; with HCT-15 colon, 3.68 µM. Further, the GI50 is 3.01 µM in the assay on T-47D breast, 3.01 µM in the assay with SK-MEL-2 melanoma and 4.45 µM in the assay with PC-3 prostate. The TGI with HCT-116 colon is 8.54 µM; with A549 NSCLC, 11.2 µM; with A498 renal, 12.8 µM; in the assay on CCRF-CEM leukemia, above 14.3 µM; in the assay on OVCAR-8 ovarian it was above 14.3 µM; with HCT-15 colon, above 14.3 µM. Also, the TGI in the assay with T-47D breast is 14 µM; in the assay with SK-MEL-2 melanoma, 7.16 µM; in the assay with PC-3 prostate it was above 14.3 µM.
